From patent US8299238B2, “Steroidogenesis modified cells and methods for screening for endocrine disrupting chemicals” (University of Saskatchewan, priority 2009, dated 2012)

Experiments:
H295R cells [1] = conditions: H295R cells (parental or unmodified); cited from earlier work
estrogen receptor = conditions: cited from earlier work
aromatase (CYP19) = target: T1, aromatase (CYP19) (Homo sapiens, UniProt P11511); conditions: cited from earlier work
T1 sequence (P11511 1-503): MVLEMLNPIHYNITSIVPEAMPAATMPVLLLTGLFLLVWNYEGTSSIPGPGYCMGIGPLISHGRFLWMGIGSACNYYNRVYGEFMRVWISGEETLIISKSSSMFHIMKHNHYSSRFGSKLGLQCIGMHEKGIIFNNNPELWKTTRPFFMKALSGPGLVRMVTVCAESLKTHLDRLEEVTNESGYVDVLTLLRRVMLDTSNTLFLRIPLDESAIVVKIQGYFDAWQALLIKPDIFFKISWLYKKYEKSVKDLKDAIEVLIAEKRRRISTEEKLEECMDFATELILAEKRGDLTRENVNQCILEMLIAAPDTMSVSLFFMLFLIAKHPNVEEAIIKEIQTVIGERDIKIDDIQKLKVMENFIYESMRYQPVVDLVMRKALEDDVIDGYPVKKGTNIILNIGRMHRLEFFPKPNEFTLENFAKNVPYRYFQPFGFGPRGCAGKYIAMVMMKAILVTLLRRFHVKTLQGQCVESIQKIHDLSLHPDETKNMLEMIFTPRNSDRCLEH

aromatase = target: T2, aromatase (Homo sapiens, UniProt P11511); conditions: human ovarian tumor cells (KGN); cited from earlier work
T2 construct: endogenous in cells; host or cells: KGN human ovarian tumor cells
T2 sequence (P11511 1-503): T1 sequence (P11511 1-503)

[2] = cited from earlier work
ER = conditions: cited from earlier work
[3] = in vivo; cited from earlier work
[4] = tested on: female rat primary granulosa cells; conditions: cited from earlier work
esterase = conditions: in vitro; cited from earlier work
H295R cells [5] = experiment: Chemical exposure, steroid production in unaltered H295R cells; format: cell-based, human; conditions: 48 h
Method: (§1) For instrumental detection of steroids, culture medium samples were extracted by ethyl acetate/hexane (v/v, 50/50) followed by LC-MS/MS analysis. […] C-d4 was provided by Cambridge (Andover, Mass., USA), other labelled standards were provided by C/D/N Isotope (Pointe-Claire, Quebec, Canada). Test chemicals (e.g. test substances) were obtained from Sigma. […] For all other hormones, chromatography was performed using a nano-pure water and methanol. Sample extract was separated by a 100 mm×2.1 mm Thermo Scientific Betasil C18 column (5 μm pore size) and then analyzed by a triple quadrapole tandem mass spectrometer (Waters, USA). All data were acquired and processed with Analyst Software, Ver. 1.4.1 (ABI-Sciex).
(§2) Cells were exposed to model chemicals in 24-well cell culture plates (COSTAR, Bucks, UK). One ml of cell suspension was added to each well and cells cultured for 24 to 48 h. Cells were exposed to chemicals dissolved in dimethyl sulfoxide (DMSO; Sigma-Aldrich, St. Louis, Mo.). Forskolin (FOR) was obtained from Sigma Chemical Co. (St. Louis, Mo., USA) and Prochloraz (PRO) was purchased from Aldrich (St. Louis, Mo., USA). The culture medium was collected from each well after 48 h and stored at −80° C. until further measurement.

H295R/CYP21A2-KD cells = experiment: Chemical exposure, steroid production in H295R/CYP21A2-KD cells; format: cell-based, human
Method: as §1, §2

Molecule	Effect type: estradiol (E2) production (H295R cells [1])	Effect type: testosterone (T) production (H295R cells [1])	also measured
CC#C[C@]1(O)CC[C@H]2[C@@H]3CCC4=CC(=O)CCC4=C3[C@@H](c3ccc(N(C)C)cc3)C[C@@]21C [RU-486/mifepristone, mifepristone]	medium to strong inducer of estradiol.	Negative for effects on testosterone;	ER result (mode of action) (estrogen receptor): Negative for ER very
CCCCNC(=O)n1c(NC(=O)OC)nc2ccccc21 [Benomyl]	inducer or negative for E2 production.	Weak inhibitor of T production; Weak	Effect on aromatase (CYP19) activity in vitro (aromatase (CYP19)): Aromatase inducer in vitro; Effect on aromatase activity (aromatase): Has been shown to induce aromatase
C=CC1(C)OC(=O)N(c2cc(Cl)cc(Cl)c2)C1=O (stereo not drawn) [Vinclozolin]	Weak inducer of and moderate	inhibitor of T production.	–
CCCCC(CC)COC(=O)c1ccccc1C(=O)OCC(CC)CCCC (stereo not drawn) [Di (2-ethylhexyl) phthalate (DEHP), Di (2-ethylhexyl) phthalate]	inducer of estradiol in H295R cells.	–	–
COc1nc(NC(C)C)nc(NC(C)C)n1 [Prometon]	Weak inducer of E2 production;	Negative for T.	–
C[C@]12CC[C@H]3[C@@H](CC[C@@]45O[C@@H]4C(O)=C(C#N)C[C@]35C)[C@@H]1CC[C@@H]2O [Trilostane]	Strong inducer of T and E2	Strong inducer of T and E2	–
N#Cc1ccc(C(c2ccc(C#N)cc2)n2cncn2)cc1 [Letrozole]	Strong inhibitor of E2 production.	Weak inhibitor of T production.	–
C#C[C@]1(O)CC[C@H]2[C@@H]3CCC4=Cc5oncc5C[C@]4(C)[C@H]3CC[C@@]21C [Danazol]	medium to strong inhibitor of estradiol.	Negative for effects on testosterone;	–
CNC(=O)CSP(=S)(OC)OC [Dimethoate]	increases testosterone and estradiol	increases testosterone and estradiol	Effect on progesterone (synthesis) in vitro [2]: Has been shown to decrease; Effect on aromatase (CYP19) activity in vitro (aromatase (CYP19)): not affect aromatase activity in vitro;
CC(C)(c1ccc(O)cc1)c1ccc(O)cc1 [Bisphenol A]	inducer	inhibitor	Effect on progesterone (synthesis) in vitro [2]: Some evidence that alters; ER binding in vitro (ER): estradiol. Tested positive for ER; Uterrotrophic assay result [3]: estradiol. Tested positive for ER
CCNc1nc(Cl)nc(NC(C)C)n1 [Atrazine]	Weak inducer of E2 production.	–	Effect on aromatase (CYP19) activity in vitro (aromatase (CYP19)): Aromatase inducer in vitro
CCCCC(CC)COC(=O)c1ccccc1C(=O)O (stereo not drawn) [monoethylhexyl phthalate (MEHP), monoethylhexyl phthalate]	–	–	Effect on estradiol production [4]: (MEHP) has been shown to suppress
Nonoxynol-9	Negative for effects on testosterone	Negative for effects on testosterone	–
O=c1c(-c2ccc(O)cc2)coc2cc(O)cc(O)c12 [Genistein]	Medium inducer of E2 and weak	inhibitor of T production. Weak	Estrogen receptor agonism (estrogen receptor): estrogen receptor agonist
CCC1(c2ccc(N)cc2)CCC(=O)NC1=O (stereo not drawn) [Aminoglutethimide]	Medium to weak inhibitor of T and E2	Medium to weak inhibitor of T and E2	–
CC(C)(C)NC(=O)[C@H]1CC[C@H]2[C@@H]3CC[C@H]4NC(=O)C=C[C@]4(C)[C@H]3CC[C@]12C [Finasteride]	negative for effects on estradiol.	Weak inhibitor of testosterone;	–
CCCCOC(=O)c1ccc(O)cc1 [Paraben (Butyl paraben), Butyl paraben]	Weak inducer of E2, and weak	inhibitor of T production.	–
CCSC(=O)N1CCCCCC1 [Molinate]	–	negative/weak inhibitor of T	Inhibition of esterase activity (esterase): vitro, molinate is a poor
CCCN(CCOc1c(Cl)cc(Cl)cc1Cl)C(=O)n1ccnc1 [Prochloraz]	Strong inhibitor of T and E2	Strong inhibitor of T and E2	Effect on production of E1 (H295R cells [5]): inhibited; Effect on production of E2 (H295R cells [5]): inhibited; Effect on production of T (H295R cells [5]): inhibited; Effect on progesterone production (H295R cells [5]; 0.1 μM to 10 μM, dose-dependent): increased; Effect on progesterone production (H295R/CYP21A2-KD cells): increased; Effect on production of E1 (H295R/CYP21A2-KD cells; H295R/CYP21A2-KD, 48 h): inhibited; Effect on production of E2 (H295R/CYP21A2-KD cells; H295R/CYP21A2-KD, 48 h): inhibited; Effect on production of T (H295R/CYP21A2-KD cells; H295R/CYP21A2-KD, 48 h): inhibited
OC(c1ccc(Cl)cc1)(c1cncnc1)c1ccccc1Cl (stereo not drawn) [Fenarimol]	not as unequivocal; weak inhibitor of	–	–
CC(=O)N1CCN(c2ccc(OCC3COC(Cn4ccnc4)(c4ccc(Cl)cc4Cl)O3)cc2)CC1 (stereo not drawn) [Ketoconazole]	Medium to weak inhibitor of E2	Strong inhibitor of T production;	Effect type: progesterone production (H295R cells [1]): production; Induces progesterone
